Counter-ions that a name gives are not always drawn.
Target: T1, recombinant JAK2 (Homo sapiens, UniProt O60674)
T1 construct: purchased Upstate Cell Signaling Solutions
Assay: IC50 value determinations for Jak2 kinase, luminescence-based kinase assay (Kinase-Glo)
Format: biochemical
Details: Table 1
Method: The IC50 values for compounds were determined using a luminescence-based kinase assay with recombinant JAK2 obtained from Upstate Cell Signaling Solutions. In white, flat bottom, 96-well plates (Nunc) parallel assays were run at room temperature at a final volume of 50 μL.
Two control reactions were also ran: one reaction containing no compound and the second containing neither inhibitor nor peptide substrate. IC50 values were derived from experimental data using the non-linear curve fitting capabilities of Prism (Version 4; GraphPad Software).

T1 sequence (O60674 808-1132 limits assumed): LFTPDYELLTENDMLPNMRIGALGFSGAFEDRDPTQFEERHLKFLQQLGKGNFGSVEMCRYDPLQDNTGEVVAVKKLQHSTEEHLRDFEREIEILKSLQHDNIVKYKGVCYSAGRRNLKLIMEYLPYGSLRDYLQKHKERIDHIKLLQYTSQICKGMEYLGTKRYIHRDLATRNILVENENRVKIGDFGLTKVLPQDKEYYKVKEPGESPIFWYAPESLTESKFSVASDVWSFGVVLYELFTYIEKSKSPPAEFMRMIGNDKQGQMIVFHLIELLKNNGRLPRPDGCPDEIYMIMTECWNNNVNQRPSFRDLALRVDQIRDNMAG

Point of comparison: Cc1cnc(Nc2ccc(OCCN3CCCC3)cc2)nc1Nc1nccc2ccccc12 [N2-(4-(2-(pyrrolidin-1-yl)ethoxy)phenyl)-N4-(isoquinolin-1-yl)-5-methylpyrimidine-2,4-diamine], IC50 1050 nM. Against it:
- Cc1cnc(Nc2cccc(S(=O)(=O)N3CCCCC3)c2)nc1Nc1cccc(S(=O)(=O)NC(C)(C)C)c1 [N-tert-Butyl-3-{5-methyl-2-[3-(piperidine-1-sulfonyl)-phenylamino]-pyrimidin-4-ylamino}-benzenesulfonamide] — 3.3-fold lower, 316 nM
- Cc1cnc(Nc2ccc(N3CCN(CCO)CC3)cc2)nc1Nc1cccc(S(=O)(=O)NC(C)(C)C)c1 [N-tert-Butyl-3-(2-{4-[4-(2-hydroxy-ethyl)-piperazin-1-yl]-phenylamino)-[5-methyl-pyrimidin-4-ylamino]-benzenesulfonamide Hydrochloride] — 150-fold lower, 7.09 nM
- Cc1cnc(Nc2ccc(N3CCN(C)CC3)cc2)nc1Nc1cccc(S(=O)(=O)N2C(C)CCC2C)c1 (stereo not drawn) [N4-[3-(2,5-Dimethyl-pyrrolidine-1-sulfonyl)-phenyl]-5-methyl-N2-[4-(4-methyl-piperazin-1-yl)-phenyl]-pyrimidine-2,4-diamine Hydrochloride] — 56-fold lower, 18.8 nM
- Cc1cnc(Nc2ccc(N3CCNCC3)c(C(F)(F)F)c2)nc1Nc1cccc(S(=O)(=O)NC(C)(C)C)c1 [N-tert-butyl-3-[(5-methyl-2-{[4-piperazin-1-yl-3-(trifluoromethyl)phenyl]amino}pyrimidin-4-yl)amino]benzenesulfonamide] — 47-fold lower, 22.5 nM
- Cc1cnc(Nc2ccc(OCCN3CCCC3)cc2)nc1Nc1cccc2ccccc12 [N2-(4-(2-(pyrrolidin-1-yl)ethoxy)phenyl)-5-methyl-N4-(naphthalen-1-yl)pyrimidine-2,4-diamine Hydrochloride] — 52-fold lower, 20 nM
- COc1cc(Nc2nc(Nc3ccc(S(=O)(=O)C4CCNCC4)cc3)ncc2C)ccc1Cl [N4-(4-Chloro-3-methoxy-phenyl)-5-methyl-N2-[4-(piperidine-4-sulfonyl)-phenyl]-pyrimidine-2,4-diamine] — 81-fold lower, 13 nM
- Cc1cnc(Nc2ccc(OCCN3CCCC3)cc2)nc1Nc1cccc2c1OCO2 [drawing 333, N4-Benzo[1,3]dioxol-4-yl-5-methyl-N2-[4-(2-pyrrolidin-1-ylethoxy)-phenyl]-pyrimidine-2,4-diamine] — 62-fold lower, 16.9 nM
- Cc1cnc(Nc2ccc(Cn3cccn3)cc2)nc1Nc1cccc(S(=O)(=O)NC(C)(C)C)c1 [N-tert-Butyl-3-[5-methyl-2-(4-pyrazol-1-ylmethyl-phenylamino)-pyrimidin-4-ylamino]-benzenesulfonamide] — 56-fold lower, 18.6 nM
- Cc1cnc(Nc2ccc(N3CCN(C)CC3)cc2)nc1Nc1cccc2[nH]ccc12 [N4-(1H-indol-4-yl)-5-methyl-N2-(4-(4-methylpiperazin-1-yl)phenyl)pyrimidine-2,4-diamine Hydrochloride] — 110-fold lower, 9.53 nM
- Cc1cnc(Nc2ccc(OCCN3CCCC3)cc2)nc1Nc1ccc(C#N)c(Cl)c1 [4-(2-(4-(2-(pyrrolidin-1-yl)ethoxy)phenylamino)-5-methylpyrimidin-4-ylamino)-2-chlorobenzonitrile Hydrochloride] — 16-fold lower, 67.5 nM
- COc1cccc(Nc2ccnc(Nc3ccc(S(=O)(=O)NCCN4CCCC4)cc3)n2)c1 [4-[4-(3-Methoxy-phenylamino)-pyrimidin-2-ylamino]-N-(2-pyrrolidin-1-yl-ethyl)-benzenesulfonamide trifluoroacetate] — 1.6-fold lower, 638 nM
- Cc1cnc(Nc2ccc(N3CCN(C)CC3)cc2)nc1Nc1cccc(S(=O)(=O)NC(C)C)c1 [N-Isopropyl-3-{5-methyl-2-[4-(4-methyl-piperazin-1-yl)-phenylamino]-pyrimidin-4-ylamino}-benzenesulfonamide] — 89-fold lower, 11.8 nM
- Cc1cnc(Nc2ccc(-n3ccnc3C)cc2)nc1Nc1cccc(S(=O)(=O)NC(C)(C)C)c1 [N-tert-Butyl-3-{5-methyl-2-[4-(2-methyl-imidazol-1-yl)-phenylamino]-pyrimidin-4-ylamino}-benzenesulfonamide] — 31-fold lower, 34.3 nM
- COc1cc(Nc2nc(Nc3ccc(Cn4cccn4)cc3)ncc2C)ccc1Cl [N4-(4-Chloro-3-methoxy-phenyl)-5-methyl-N2-(4-pyrazol-1-ylmethyl-phenyl)-pyrimidine-2,4-diamine] — 56-fold lower, 18.9 nM
- Cc1cnc(Nc2ccc(OCCN3CCCC3)cc2)nc1Nc1ccc(Cl)cc1 [N4-(4-Chloro-phenyl)-5-methyl-N2-[4-(2-pyrrolidin-1-yl-ethoxy)-phenyl]-pyrimidine-2,4-diamine trifluoroacetate] — 58-fold lower, 18.2 nM
- CC(=O)N1CCN(c2ccc(Nc3ncc(C)c(Nc4cccc(S(=O)(=O)NC(C)(C)C)c4)n3)cc2C(F)(F)F)CC1 [3-[(2-{[4-(4-acetylpiperazin-1-yl)-3-(trifluoromethyl)phenyl]amino}-5-methylpyrimidin-4-yl)amino]-N-tert-butylbenzenesulfonamide] — 29-fold lower, 35.7 nM
- Cc1cnc(Nc2ccc(OCCN3CCCC3)cc2)nc1Nc1cccc(N(C)C)c1 [N4-(3-Dimethylamino-phenyl)-5-methyl-N2-[4-(2-pyrrolidin-1-yl-ethoxy)-phenyl]-pyrimidine-2,4-diamine] — 53-fold lower, 19.7 nM
- Cc1cnc(Nc2ccc(N3CCN(C)CC3)cc2)nc1Nc1cccc(C2CCNCC2)c1 [5-Methyl-N2-[4-(4-methyl-piperazin-1-yl)-phenyl]-N4-(3-piperidin-4-yl-phenyl)-pyrimidine-2,4-diamine] — 25-fold lower, 42.5 nM
- Cc1cnc(Nc2ccc(C(=O)N3CCOCC3)cc2)nc1Nc1cccc(S(=O)(=O)NC(C)(C)C)c1 [N-tert-Butyl-3-{5-methyl-2-[4-(morpholine-4-carbonyl)-phenylamino]-pyrimidin-4-ylamino}-benzenesulfonamide] — 32-fold lower, 32.9 nM
- Cc1cnc(Nc2ccc(N3CCN(C)CC3)cc2)nc1Nc1cccc(C2CCN(CCO)CC2)c1 [2-[4-(3-{5-Methyl-2-[4-(4-methyl-piperazin-1-yl)-phenylamino]-pyrimidin-4-ylamino}-phenyl)-piperidin-1-yl]-ethanol] — 120-fold lower, 8.46 nM
- Cc1cc(Nc2nc(Nc3ccc(OC4CCNCC4)cc3)ncc2C)ccc1Cl [N4-(4-Chloro-3-methyl-phenyl)-5-methyl-N2-[4-(piperidin-4-yloxy)-phenyl]-pyrimidine-2,4-diamine] — 120-fold lower, 8.41 nM
- Cc1ccc(Nc2nc(Nc3ccc(N4CCN(C)CC4)cc3)ncc2C)cc1S(C)(=O)=O [N4-(3-Methanesulfonyl-4-methyl-phenyl)-5-methyl-N2-[4-(4-methyl-piperazin-1-yl)-phenyl]-pyrimidine-2,4-diamine] — 6.6-fold lower, 160 nM
- Cc1cnc(Nc2ccc(CN3CCNCC3)cc2)nc1Nc1cccc2[nH]ccc12 [N4-(1H-Indol-4-yl)-5-methyl-N2-(4-piperazin-1-ylmethyl-phenyl)-pynmidine-2,4-diamine] — 100-fold lower, 10.1 nM
- Cc1cnc(Nc2ccc(N3CCN(C)CC3)cc2)nc1Nc1cccc(C(=O)NC(C)(C)C)c1 [N-tert-Butyl-3-{5-methyl-2-[4-(4-methyl-piperazin-1-yl)-phenylamino]-pyrimidin-4-ylamino}-benzamide] — within 1.5-fold, 890 nM
- Cc1cnc(Nc2cccc(-c3nnn[nH]3)c2)nc1Nc1cccc(S(=O)(=O)NC(C)(C)C)c1 [N-tert-Butyl-3-{5-methyl-2-[3-(1H-tetrazol-5-yl)-phenylamino]-pyrimidin-4-ylamino}-benzenesulfonamide] — 19-fold lower, 55.9 nM
- Cc1cnc(Nc2ccc(-n3cncn3)cc2)nc1Nc1cccc(S(=O)(=O)NC(C)(C)C)c1 [N-tert-Butyl-3-[5-methyl-2-(4-[1,2,4]triazol-1-yl-phenylamino)-pyrimidin-4-ylamino]-benzenesulfonamide] — 25-fold lower, 41.4 nM
